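In this assay, cells in 96-well plates receive the compound at five concentrations for 48 hours. Endpoints are linearly interpolated between the surrounding concentrations. GI50 = concentration required for 50% inhibition of growth.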 Active and inactive are the calls of the source. Rule as the data show it: active = GI50 up to about 1.1 µM and inactive = higher.
Legend:
Test in all cases: inhibition of tumour cell growth, NCI panel, 48 h
Hs-578T = test system: Hs-578T
CCRF-CEM = test system: CCRF-CEM
HCT-116 = test system: HCT-116
A549 = test system: A549
OVCAR-3 = test system: OVCAR-3
SW-620 = test system: SW-620
NCI-H23 = test system: NCI-H23
NCI-H226 = test system: NCI-H226
BT-549 = test system: BT-549
UACC-257 = test system: UACC-257
SN12C = test system: SN12C
PC-3 = test system: PC-3
NCI-H460 = test system: NCI-H460
SNB-19 = test system: SNB-19
SK-MEL-28 = test system: SK-MEL-28
HCT-15 = test system: HCT-15
SK-OV-3 = test system: SK-OV-3
NCI/ADR-RES = test system: NCI/ADR-RES
NCI-H522 = test system: NCI-H522
SNB-75 = test system: SNB-75

SMILES	GI50 (Hs-578T)	GI50 (CCRF-CEM)	GI50 (HCT-116)	GI50 (A549)	GI50 (OVCAR-3)	GI50 (SW-620)	GI50 (NCI-H23)	GI50 (NCI-H226)	GI50 (BT-549)	GI50 (UACC-257)	GI50 (SN12C)	GI50 (PC-3)	GI50 (NCI-H460)	GI50 (SNB-19)	GI50 (SK-MEL-28)	GI50 (HCT-15) [µM]	GI50 (SK-OV-3)	GI50 (NCI/ADR-RES)	GI50 (NCI-H522)	GI50 (SNB-75)
COc1cc2c(cc1OC)C(=O)/C(=C/c1ccc([N+](=O)[O-])cc1)CC2	> 10 µM (inactive)	> 10 µM (inactive)	> 10 µM (inactive)	> 10 µM (inactive)	> 10 µM (inactive)	> 10 µM (inactive)	> 10 µM (inactive)	> 10 µM (inactive)	> 10 µM (inactive)	> 10 µM (inactive)	> 10 µM (inactive)	> 10 µM (inactive)	> 10 µM (inactive)	> 10 µM (inactive)	> 10 µM (inactive)	> 10	> 10 µM (inactive)	> 10 µM (inactive)	–	–
CCN(CC)CCn1c2cc3c(cc2c(=O)c2cccnc21)OCCO3	> 10 µM (inactive)	5.46 µM (inactive)	4.72 µM (inactive)	> 10 µM (inactive)	> 10 µM (inactive)	5.28 µM (inactive)	> 10 µM (inactive)	–	> 10 µM (inactive)	> 10 µM (inactive)	9.71 µM (inactive)	> 10 µM (inactive)	–	> 10 µM (inactive)	> 10 µM (inactive)	> 10	> 10 µM (inactive)	> 10 µM (inactive)	> 10 µM (inactive)	> 10 µM (inactive)
CC1C2CC(CC2=O)C1(C)C (stereo unspecified)	> 100 µM (inactive)	> 100 µM (inactive)	> 100 µM (inactive)	> 100 µM (inactive)	> 100 µM (inactive)	> 100 µM (inactive)	> 100 µM (inactive)	> 100 µM (inactive)	> 100 µM (inactive)	> 100 µM (inactive)	> 100 µM (inactive)	> 100 µM (inactive)	> 100 µM (inactive)	> 100 µM (inactive)	> 100 µM (inactive)	–	> 100 µM (inactive)	–	> 100 µM (inactive)	> 100 µM (inactive)
COc1c(C)c(C/C=C(\C)CCCCO)c(OC)c2ccccc12	30.2 µM (inactive)	28.8 µM (inactive)	28.9 µM (inactive)	36.1 µM (inactive)	62.4 µM (inactive)	57.3 µM (inactive)	29.7 µM (inactive)	–	46.7 µM (inactive)	33.8 µM (inactive)	23.4 µM (inactive)	34.4 µM (inactive)	20.6 µM (inactive)	> 100 µM (inactive)	–	31.6	> 100 µM (inactive)	42.6 µM (inactive)	19.1 µM (inactive)	33 µM (inactive)
Cc1nc2c(o1)C(=O)c1ccccc1/C2=N/c1ccccn1	14.8 µM (inactive)	18.5 µM (inactive)	20.4 µM (inactive)	31.8 µM (inactive)	4.66 µM (inactive)	17.8 µM (inactive)	11.5 µM (inactive)	–	18.3 µM (inactive)	14 µM (inactive)	24.9 µM (inactive)	30.8 µM (inactive)	14.6 µM (inactive)	14.8 µM (inactive)	18.8 µM (inactive)	14	> 100 µM (inactive)	15.8 µM (inactive)	19 µM (inactive)	4.57 µM (inactive)
O=c1c2ccccc2nc2[nH][nH]c(=S)n12	43.3 µM (inactive)	> 100 µM (inactive)	> 100 µM (inactive)	> 100 µM (inactive)	> 100 µM (inactive)	> 100 µM (inactive)	> 100 µM (inactive)	> 100 µM (inactive)	> 100 µM (inactive)	> 100 µM (inactive)	> 100 µM (inactive)	> 100 µM (inactive)	> 100 µM (inactive)	> 100 µM (inactive)	> 100 µM (inactive)	> 100	> 100 µM (inactive)	> 100 µM (inactive)	–	48.4 µM (inactive)
CCN(CC)CCC(=O)OC1C(C)=CC(C)C(=O)CC(C(C)CC2CCC(O)C(OC)C2)OC(=O)C2CCCCN2C(=O)C(=O)[C@@]2(O)OC(CCC2C)CC(OC)\C(C)=C/C=C/C=C/C(C)CC(C)C(=O)C1OC (stereo partly specified)	< 0.01 µM (active)	–	5.89 µM (inactive)	< 0.01 µM (active)	11.2 µM (inactive)	11.6 µM (inactive)	11.7 µM (inactive)	12.9 µM (inactive)	< 0.01 µM (active)	13.3 µM (inactive)	6.37 µM (inactive)	< 0.01 µM (active)	–	4.34 µM (inactive)	0.0791 µM (active)	1.75	< 0.01 µM (active)	11.3 µM (inactive)	12.2 µM (inactive)	< 0.01 µM (active)
COC(=O)/C=c1/c2ccccc2n2c1c1ccccc1[n+]2C	2.64 µM (inactive)	3.3 µM (inactive)	3.31 µM (inactive)	3.82 µM (inactive)	3.55 µM (inactive)	2.76 µM (inactive)	3.29 µM (inactive)	5.52 µM (inactive)	3.3 µM (inactive)	2.58 µM (inactive)	3.65 µM (inactive)	2.81 µM (inactive)	3.37 µM (inactive)	4.88 µM (inactive)	5.82 µM (inactive)	13.4	2.67 µM (inactive)	31.3 µM (inactive)	–	3.69 µM (inactive)
O=C(CC1(O)CCCCC1)OC1CCCC1	> 100 µM (inactive)	–	> 100 µM (inactive)	> 100 µM (inactive)	> 100 µM (inactive)	–	> 100 µM (inactive)	> 100 µM (inactive)	> 100 µM (inactive)	> 100 µM (inactive)	> 100 µM (inactive)	> 100 µM (inactive)	> 100 µM (inactive)	> 100 µM (inactive)	–	> 100	> 100 µM (inactive)	> 100 µM (inactive)	> 100 µM (inactive)	> 100 µM (inactive)
O=C(N/N=C\c1ccc([N+](=O)[O-])cc1)c1ccccc1Nc1ccccc1C(=O)N/N=C/c1ccc([N+](=O)[O-])cc1	> 100 µM (inactive)	85.7 µM (inactive)	> 100 µM (inactive)	> 100 µM (inactive)	> 100 µM (inactive)	> 100 µM (inactive)	> 100 µM (inactive)	> 100 µM (inactive)	> 100 µM (inactive)	> 100 µM (inactive)	> 100 µM (inactive)	> 100 µM (inactive)	> 100 µM (inactive)	> 100 µM (inactive)	> 100 µM (inactive)	> 100	> 100 µM (inactive)	> 100 µM (inactive)	–	> 100 µM (inactive)
CC(=O)ON(OC(C)=O)c1ccc(C)cc1	> 100 µM (inactive)	< 0.01 µM (active)	> 100 µM (inactive)	> 100 µM (inactive)	> 100 µM (inactive)	> 100 µM (inactive)	> 100 µM (inactive)	–	> 100 µM (inactive)	> 100 µM (inactive)	–	> 100 µM (inactive)	> 100 µM (inactive)	> 100 µM (inactive)	> 100 µM (inactive)	> 100	> 100 µM (inactive)	> 100 µM (inactive)	> 100 µM (inactive)	> 100 µM (inactive)
